#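 Cultured in 96-well plates, cells were exposed to test compound for 48 hours across five concentrations. Abbreviation: GI50, concentration required for 50% inhibition of growth.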 Activity calls are given as the source filed them. No stated cut-off is given here; in the data, active = GI50 up to about 1.1 µM and inactive = higher.
# Legend:
# Experiment in all cases: inhibition of tumour cell growth, NCI panel, 48 h
# CAKI-1 = tested on: CAKI-1
# MOLT-4 = tested on: MOLT-4
# NCI-H460 = tested on: NCI-H460
# SNB-19 = tested on: SNB-19
# 786-0 = tested on: 786-0
# TK-10 = tested on: TK-10
# NCI/ADR-RES = tested on: NCI/ADR-RES
# Hs-578T = tested on: Hs-578T
# SF-295 = tested on: SF-295
# SW-620 = tested on: SW-620
# NCI-H23 = tested on: NCI-H23
# NCI-H226 = tested on: NCI-H226
# COLO 205 = tested on: COLO 205
# U-251 = tested on: U-251
# EKVX = tested on: EKVX
# UACC-257 = tested on: UACC-257
# MDA-N = tested on: MDA-N
# SN12C = tested on: SN12C
# HT-29 = tested on: HT-29
# KM12 = tested on: KM12
# MDA-MB-231 = tested on: MDA-MB-231
# IGROV-1 = tested on: IGROV-1
# OVCAR-8 = tested on: OVCAR-8
# LOX IMVI = tested on: LOX IMVI
# MCF7 = tested on: MCF7
# MDA-MB-435 = tested on: MDA-MB-435
# OVCAR-5 = tested on: OVCAR-5
# HCT-116 = tested on: HCT-116
# M14 = tested on: M14
# NCI-H522 = tested on: NCI-H522
# RPMI-8226 = tested on: RPMI-8226
# SF-539 = tested on: SF-539
# SF-268 = tested on: SF-268
# HCT-15 = tested on: HCT-15
# SR = tested on: SR
# CCRF-CEM = tested on: CCRF-CEM
# HL-60 = tested on: HL-60
# RXF 393 = tested on: RXF 393
# A549 = tested on: A549
# DU-145 = tested on: DU-145
# Malme-3M = tested on: Malme-3M
# SK-MEL-28 = tested on: SK-MEL-28
# UO-31 = tested on: UO-31
# OVCAR-3 = tested on: OVCAR-3
# ACHN = tested on: ACHN
# HCC 2998 = tested on: HCC 2998
# SNB-75 = tested on: SNB-75
# SK-MEL-5 = tested on: SK-MEL-5
# HOP-62 = tested on: HOP-62
# K562 = tested on: K562
# T47D = tested on: T47D
# SK-OV-3 = tested on: SK-OV-3
# HOP-92 = tested on: HOP-92
# SK-MEL-2 = tested on: SK-MEL-2
# A498 = tested on: A498
# UACC-62 = tested on: UACC-62
# OVCAR-4 = tested on: OVCAR-4
# PC-3 = tested on: PC-3
smiles,measurement,setting,value
CCOP(=O)(OCC)C(c1ccc(F)cc1)N(C(=O)NC(F)(F)F)c1ccc(OC)cc1 (stereo not given),GI50,CAKI-1,> 100 µM (inactive)
same,GI50,MOLT-4,> 100 µM (inactive)
same,GI50,NCI-H460,> 100 µM (inactive)
same,GI50,SNB-19,> 100 µM (inactive)
same,GI50,786-0,> 100 µM (inactive)
same,GI50,TK-10,> 100 µM (inactive)
same,GI50,NCI/ADR-RES,> 100 µM (inactive)
same,GI50,Hs-578T,> 100 µM (inactive)
same,GI50,SF-295,> 100 µM (inactive)
same,GI50,SW-620,> 100 µM (inactive)
same,GI50,NCI-H23,> 100 µM (inactive)
same,GI50,NCI-H226,> 100 µM (inactive)
same,GI50,COLO 205,> 100 µM (inactive)
same,GI50,U-251,> 100 µM (inactive)
same,GI50,EKVX,> 100 µM (inactive)
same,GI50,UACC-257,> 100 µM (inactive)
same,GI50,MDA-N,> 100 µM (inactive)
same,GI50,SN12C,> 100 µM (inactive)
same,GI50,HT-29,> 100 µM (inactive)
same,GI50,KM12,> 100 µM (inactive)
same,GI50,MDA-MB-231,> 100 µM (inactive)
same,GI50,IGROV-1,> 100 µM (inactive)
same,GI50,OVCAR-8,> 100 µM (inactive)
same,GI50,LOX IMVI,> 100 µM (inactive)
same,GI50,MCF7,> 100 µM (inactive)
same,GI50,MDA-MB-435,> 100 µM (inactive)
same,GI50,OVCAR-5,> 100 µM (inactive)
same,GI50,HCT-116,> 100 µM (inactive)
same,GI50,M14,> 100 µM (inactive)
same,GI50,NCI-H522,> 100 µM (inactive)
same,GI50,RPMI-8226,> 100 µM (inactive)
same,GI50,SF-539,> 100 µM (inactive)
same,GI50,SF-268,> 100 µM (inactive)
same,GI50,HCT-15,> 100 µM
same,GI50,SR,> 100 µM (inactive)
same,GI50,CCRF-CEM,> 100 µM (inactive)
same,GI50,HL-60,> 100 µM (inactive)
same,GI50,RXF 393,> 100 µM (inactive)
same,GI50,A549,> 100 µM (inactive)
same,GI50,DU-145,> 100 µM (inactive)
same,GI50,Malme-3M,> 100 µM (inactive)
same,GI50,SK-MEL-28,> 100 µM (inactive)
same,GI50,UO-31,> 100 µM (inactive)
same,GI50,OVCAR-3,> 100 µM (inactive)
same,GI50,ACHN,> 100 µM (inactive)
same,GI50,HCC 2998,> 100 µM (inactive)
same,GI50,SNB-75,> 100 µM (inactive)
same,GI50,SK-MEL-5,> 100 µM (inactive)
same,GI50,HOP-62,> 100 µM (inactive)
same,GI50,K562,> 100 µM (inactive)
O=[N+]([O-])c1ccc(Cl)cc1C1ON=C(c2ccccc2)N1C12CC3CC(CC(C3)C1)C2 (stereo not given),GI50,CAKI-1,> 100 µM (inactive)
same,GI50,MOLT-4,> 100 µM (inactive)
same,GI50,NCI-H460,> 100 µM (inactive)
same,GI50,SNB-19,> 100 µM (inactive)
same,GI50,786-0,> 100 µM (inactive)
same,GI50,TK-10,> 100 µM (inactive)
same,GI50,NCI/ADR-RES,> 100 µM (inactive)
same,GI50,Hs-578T,> 100 µM (inactive)
same,GI50,SF-295,> 100 µM (inactive)
same,GI50,T47D,> 100 µM (inactive)
same,GI50,SK-OV-3,> 100 µM (inactive)
same,GI50,HOP-92,> 100 µM (inactive)
same,GI50,SK-MEL-2,> 100 µM (inactive)
same,GI50,NCI-H23,> 100 µM (inactive)
same,GI50,NCI-H226,64.3 µM (inactive)
same,GI50,COLO 205,> 100 µM (inactive)
same,GI50,U-251,> 100 µM (inactive)
same,GI50,EKVX,> 100 µM (inactive)
same,GI50,UACC-257,> 100 µM (inactive)
same,GI50,A498,> 100 µM (inactive)
same,GI50,MDA-N,> 100 µM (inactive)
same,GI50,SN12C,> 100 µM (inactive)
same,GI50,HT-29,> 100 µM (inactive)
same,GI50,MDA-MB-231,> 100 µM (inactive)
same,GI50,IGROV-1,> 100 µM (inactive)
same,GI50,LOX IMVI,57.5 µM (inactive)
same,GI50,MCF7,> 100 µM (inactive)
same,GI50,MDA-MB-435,> 100 µM (inactive)
same,GI50,OVCAR-5,> 100 µM (inactive)
same,GI50,HCT-116,86.9 µM (inactive)
same,GI50,M14,> 100 µM (inactive)
same,GI50,NCI-H522,> 100 µM (inactive)
same,GI50,RPMI-8226,> 100 µM (inactive)
same,GI50,UACC-62,> 100 µM (inactive)
same,GI50,SF-539,> 100 µM (inactive)
same,GI50,SF-268,> 100 µM (inactive)
same,GI50,HCT-15,> 100 µM
same,GI50,OVCAR-4,> 100 µM (inactive)
same,GI50,SR,> 100 µM (inactive)
same,GI50,CCRF-CEM,> 100 µM (inactive)
same,GI50,PC-3,> 100 µM (inactive)
same,GI50,HL-60,73.6 µM (inactive)
same,GI50,RXF 393,> 100 µM (inactive)
same,GI50,A549,> 100 µM (inactive)
same,GI50,DU-145,> 100 µM (inactive)
same,GI50,Malme-3M,49.4 µM (inactive)
same,GI50,SK-MEL-28,> 100 µM (inactive)
same,GI50,UO-31,> 100 µM (inactive)
same,GI50,OVCAR-3,97.7 µM (inactive)
same,GI50,ACHN,> 100 µM (inactive)
same,GI50,HCC 2998,> 100 µM (inactive)
same,GI50,SNB-75,0.0245 µM (active)
same,GI50,SK-MEL-5,> 100 µM (inactive)
same,GI50,HOP-62,> 100 µM (inactive)
same,GI50,K562,> 100 µM (inactive)

# Reference: ChEMBL document CHEMBL1201862, “PubChem BioAssay data set” (2004)
